Results reported in US9371335B2, “Spirothienopyran-piperidine derivatives as ORL-1 receptor antagonists for their use in the treatment of alcohol dependence and abuse” (Eli Lilly and Company, priority 2011, dated 2016).

How the values were obtained:
[1] = tested on: Alcohol-Preferring (P) rats; test: Operant ethanol self-administration in P rats (progressive ratio schedule); assay type: in vivo, rat; conditions: for ethanol-motivated responding: P rats on progressive ratio schedule, result in words; for Reduction vs. Vehicle (lever presses) / Mean Number of Lever Presses (Drug-treated): female P rats; for Mean Number of Lever Presses (Drug-treated): 30-min progressive ratio session
Description: Operant Self-Administration in P rats:
Female P rats are obtained and pair-housed from a private colony (Taconic, Germantown, N.Y.). In order to reduce novelty-induced avoidance of ethanol, the water bottle on the homecage is replaced with a bottle containing 15% ethanol in water (v/v, in water) for two days prior to operant training. Throughout the rest of the experiment, rats receive ad libitum access to water and standard laboratory chow, with no further access to ethanol in the homecage.
Rats are trained to press a lever for ethanol reinforcement in daily 30-min sessions conducted in standard rat operant chambers contained within sound-attenuating chambers (MED Associates, Inc., St. Albans, Vt.). The chambers consist of two stainless steel and two clear Plexiglas walls. The floor grid of the operant chambers consists of 0.5 cm diameter stainless steel bars placed approximately 1.5 cm apart. Each operant chamber contains two retractable operant levers located approximately 6 cm above the grid floor and 13 cm apart. A recessed trough is located in the space between the levers, through which a dipper cup (0.1 mL capacity) is raised to deliver response-contingent ethanol (15%, v/v, in water). Upon a reinforced response, a stimulus light is illuminated above the lever on which the response was made throughout the 4-sec dipper cup access. Operation of the stimuli and behavioral responses are controlled and recorded by personal computer for offline analysis (MED Associates, Inc., St. Albans, Vt.).
During operant training, responses on either lever are considered correct responses and are rewarded with 0.1 mL ethanol reinforcement. […] Once stable baseline responding is reached on an FR-1 schedule of reinforcement, the response contingency is increased to FR-2 and then again to FR-3 so that 3 lever presses are required for each reinforcement. […] Specifically, the response requirement is increased as follows: all rats begin each session at an FR-1 schedule of reinforcement; after three reinforcements, the schedule is increased to FR-2; after three reinforcements at that level, the schedule is increased by two to FR-4; after three reinforcements, the schedule is increased by two to FR-6; and so on (see for e.g. Oster S M, Toalston J E, Kuc K A, Pommer T J, Murphy J M, Lumeng L, Bell R L, McBride W J and Rodd Z A (2006) Effects of multiple alcohol deprivations on operant ethanol self-administration by high-alcohol-drinking replicate rat lines. Alcohol 38:155-164). Each session lasts a total of 30 min, after which, all stimuli are turned off and levers are retracted. […] The amount of ethanol consumed is calculated from the number of active lever presses, and converted into g/kg EtOH consumed. Rats receive oral administration of vehicle or test compound in the dose range of 3, 10, or 30 mg/kg (3 mL/kg dose volume, dissolved in a vehicle consisting of 20% Captisol® in 25 mM phosphate buffer at pH=2), or the nonselective opioid receptor antagonist naltrexone (10 mg/kg) as a positive control, 60 min. prior to the session, using a within-subjects, crossover design (3-4 day washout between subsequent doses). On a separate occasion, rats receive oral administration of vehicle or 30 mg/kg test compound (1 mL/kg dose volume, dissolved in a vehicle consisting of 20% Captisol® in 25 mM phosphate buffer), 30 min prior to the session, using a crossover design.

msP rats = test: Free-choice ethanol self-administration in msP rats; assay type: in vivo, rat; conditions: 24 hr
Procedure: In a separate study, male msP rats are obtained from a private colony (University of Camerino, Marche, Italy), individually-housed with food, 10% ethanol (v/v in water), and water available ad libitum, and maintained on a 12 hr. light/dark cycle. Ethanol and water are measured using graduated bottles to assess the volume of ethanol consumed (Economidou D, Fedeli A, Fardon R M, Weiss F, Massi M and Ciccocioppo R (2006) Effect of novel nociceptin/orphanin FQ-NOP receptor ligands on ethanol drinking in alcohol-preferring msP rats. Peptides 27:3299-3306.). Food intake is monitored by weighing the food receptacle. Once rats reach a stable baseline of voluntary ethanol consumption of 5-6 g/kg/day (approximately 4-5 months of age), rats are treated orally with test compounds in the dose range of 3 or 30 mg/kg in a formulation consisting of 1:1 distilled water: 1 M H3PO4 (1-5 mL/kg dose volume), one hour prior to onset of the dark cycle, using a within-subjects, crossover design (3-4 day washout between subsequent doses). Ethanol, water, and food are presented to the animals at the onset of the dark cycle, and consumption of food and fluids is measured at 2, 8, and 24 hr intervals.

Structure (SMILES) | ethanol-motivated responding [1] | Reduction vs. Vehicle (lever presses) ([1]; 3 mg/kg oral) | Mean Number of Lever Presses (Drug-treated) ([1]; 3 mg/kg oral) | Reduction vs. Vehicle (lever presses) ([1]; 10 mg/kg oral) | Mean Number of Lever Presses (Drug-treated) ([1]; 10 mg/kg oral) | Reduction vs. Vehicle (lever presses) ([1]; 30 mg/kg oral) | Mean Number of Lever Presses (Drug-treated) ([1]; 30 mg/kg oral) | Mean EtOH Consumed in g/kg (Drug-treated) (msP rats; 3 mg/kg oral) | Reduction vs. Vehicle (EtOH consumed) (msP rats; 3 mg/kg oral) | Mean EtOH Consumed in g/kg (Drug-treated) (msP rats; 30 mg/kg oral) | Reduction vs. Vehicle (EtOH consumed) (msP rats; 30 mg/kg oral)
Cc1nn(-c2ncccc2CO)cc1CN1CCC2(CC1)OCC(F)(F)c1cc(Cl)sc12 [Compound 1, [2-[4-[(2-chloro-4,4-difluoro-spiro[5H-thieno[2,3-c]pyran-7,4′-piperidine]-1′-yl)methyl]-3-methyl-pyrazol-1-yl]-3-pyridyl]methanol] | reduce ethanol-motivated responding | 4.6% | 412.58 | 23.7% | 330 | 55.8% | 191.25 | 6.7 g/kg | 8.2% | 4.4 g/kg | 39.7%
Cc1nn(-c2ncccc2F)cc1CN1CCC2(CC1)OCC(F)(F)c1cc(Cl)sc12 [Compound 2, 2-Chloro-4,4-difluoro-1′-[[1-(3-fluoro-2-pyridyl)-3-methyl-pyrazol-4-yl]methyl]spiro[5H-thieno[2,3-c]pyran-7,4′-piperidine]] | reduce ethanol-motivated responding | – | – | – | – | 61.9% | 143.31 | 5.6 g/kg | 20.0% | 5 g/kg | 28.6%
